{
  "source": "patent US11883398B2",
  "about": "“Dipeptidylpeptidase 4 inhibition enhances lymphocyte trafficking, improving both naturally occurring tumor immunity and immunotherapy” (INSTITUT PASTEUR, priority 2015, dated 2024)",
  "key": {"[1]": {"system": "B16F10 cells", "assay": "Model of metastatic melanoma (intravenous B16F10, lung metastatic foci)", "format": "in vivo, mouse", "details": "15 days after intravenous injection of B16F10 cells", "experimental": "(§1) B16F10 and M04 (Ovalbumin-expressing B16F10 cells, gift from C. Reis e Sousa) tumor cells were cultured in DMEM (Gibco) supplemented with 10% FCS (PAA), 0.1 mM non-essential amino acids, 1 mM sodium pyruvate, 10 mM Hepes, 70 μM beta-mercaptoethanol and 23 μg/ml gentamycin (all from Gibco). CT26 colon carcinoma cells were cultured in RPMI (Gibco) supplemented as described for DMEM. Cells for injections were passaged 1-2 times after thawing, before use. WT and genetically modified mice were subcutaneously injected with 2×10^5 B16 or 5×10^5 CT26 cells in the shaved right flank. When indicated, mice received an intra-tumoral injection of 1 μg of recombinant mCXCL10, 5 μg CpG-A in DOPTAP or vehicle control. […] Tumor height and width were measured with a caliper and tumor volume was calculated (Elliptical volume=width^2×height×0.523). […] 15 days after tumor cell injection, lungs were dissected, placed in Fekete's solution and metastatic foci were counted. […]"}, "[2]": {"system": "B16F10 tumors", "assay": "Flow cytometry of leukocytes infiltrating B16F10 tumors", "format": "in vivo, mouse", "experimental": "B16F10 and M04 (Ovalbumin-expressing B16F10 cells, gift from C. Reis e Sousa) tumor cells were cultured in DMEM (Gibco) supplemented with 10% FCS (PAA), 0.1 mM non-essential amino acids, 1 mM sodium pyruvate, 10 mM Hepes, 70 μM beta-mercaptoethanol and 23 μg/ml gentamycin (all from Gibco). CT26 colon carcinoma cells were cultured in RPMI (Gibco) supplemented as described for DMEM. Cells for injections were passaged 1-2 times after thawing, before use. WT and genetically modified mice were subcutaneously injected with 2×10^5 B16 or 5×10^5 CT26 cells in the shaved right flank. When indicated, mice received an intra-tumoral injection of 1 μg of recombinant mCXCL10, 5 μg CpG-A in DOPTAP or vehicle control. For blocking of chemokine and chemokine receptors, WT mice were intraperitoneally injected with 100 μg of hamster a-mCXCR3 (clone CXCR3-173, BioLegend), 100 μg of hamster α-mCCR5 (clone HM-CCR5, BioLegend), 50 μg of rat anti-mCXCL10 (clone 134013, R&D systems) and 20 μg of rat-α-mCXCR4 (clone 2B11/CXCR4, BD Biosciences) or with respective isotype antibodies (hamster IgG (clone HTK888, BioLegend, used as control for mCXCR3 and mCCR5 blockage); rat IgG2a (clone 54447, R&D systems, used as control for mCXCL10 blockade) and rat IgG2b (clone A95-1, BD Biosciences, used as control for mCXCR4 blockade). Intraperitoneal injection was done one day before and 4, 8 and 12 days after tumor cell injection. For CXCL10 neutralization, antibodies were injected on day 2, 5, 8 and 11 after tumor cell injection. For immunotherapy protocols, mice were intraperitoneally injected with 100 μg of mouse α-CTLA-4 (clone 9D9, Bioxcell), 200 μg of PD1 (clone RMP1-14, Bioxcell), a combination of 100 μg of α-CTLA-4+200 μg of a-PD1 or control isotypes (100 μg […] and 200 μg rat IgG2a (clone 2A3), both from Bioxcell) on day 3, 6 and 9 after tumor cell implantation. For adoptive cell transfer experiments, Pmel-1 Thy-1.1^+Thy-1.1^+, Cxcr3^−/− Thy-1.1^+Thy-1.2^+ Pmel-1 or OT1 splenocytes were activated ex-vivo, by incubation with 1 nM of human gp100 (for Pmel-1 cells) or […] (for OT1 cells) peptides for 1h at room temperature with agitation. Splenocytes were then washed and resuspended in R10 supplemented with 30U/mL of recombinant human IL-2. CD8^+ T cells were expanded for 6-7 days before used. For analysis of tumor infiltrates, activated Cxcr3^+/+ Thy-1.1^+Thy-1.1^+ and Cxcr3^−/− Thy-1.1^+Thy-1.2^+ transgenic Pmel-1 CD8^+ T cells were mixed in a 1:1 ratio (total 1×10^6 cells) and injected intravenously into gender matched tumor-bearing mice (3 days after tumor cell injection). For analysis of tumor growth, activated OT1 cells were injected intravenously (1×10^5 cells per mouse) into gender matched tumor-bearing mice, 3 days after tumor cell injection. Tumor height and width were measured with a caliper and tumor volume was calculated (Elliptical volume=width^2×height×0.523). The model of metastatic melanoma was achieved by intravenous injection of 2×10^5 B16 tumor cells. 15 days after tumor cell injection, lungs were dissected, placed in Fekete's solution and metastatic foci were counted. Lungs with more than 100 metastatic nodules were defined as 100.\nFluorochrome-conjugated anti-mouse CD3 (clone145-2C11), CD8 (clone 53-6.7), CD4 (clone RM4-5), NK1.1 (clone PK136), CD49b (clone DX5), CD25 (clone PC61), B220 (clone RA3-6B2), Ly6G (clone 1A8), Ly6C (clone AL-21), CD11 b (clone M1/70) Siglec-F (clone E50-2440), MHCII IA-IE (clone M5/114.15.2), CD45.2 (clones 56-0454-82 and 109830), Thy-1.1 (clone HIS51), Thy-1.2 (clone 53-2.1), DPP4 (clone H194-112) and CXCR3 (clone CXCR3-173) were from eBiosciences and BD Biosciences. Fluorochrome conjugated anti-F4/80 (clone CI:A3-1) was from AbDserotec. For exclusion of dead cells, Live/Dead fixable Aqua reagent (Invitrogen) was used. For all staining protocols, cell suspensions were incubated with mouse CD16/CD32 Fc Blocking antibodies (BD Biosciences) prior to antibody. […]"}, "[3]": {"system": "M04 (B16F10 transfected with OVA)", "assay": "B16-OVA (M04) tumor growth with OT1 adoptive T cell transfer", "format": "in vivo, mouse", "experimental": "as §1"}, "[4]": {"system": "MEK1 induced skin tumors", "details": "Arwert and colleagues; cited from earlier work"}, "[5]": {"target": "DPP8 (Homo sapiens, UniProt Q6V1X1)", "sequence (Q6V1X1 whole entry, species assumed)": "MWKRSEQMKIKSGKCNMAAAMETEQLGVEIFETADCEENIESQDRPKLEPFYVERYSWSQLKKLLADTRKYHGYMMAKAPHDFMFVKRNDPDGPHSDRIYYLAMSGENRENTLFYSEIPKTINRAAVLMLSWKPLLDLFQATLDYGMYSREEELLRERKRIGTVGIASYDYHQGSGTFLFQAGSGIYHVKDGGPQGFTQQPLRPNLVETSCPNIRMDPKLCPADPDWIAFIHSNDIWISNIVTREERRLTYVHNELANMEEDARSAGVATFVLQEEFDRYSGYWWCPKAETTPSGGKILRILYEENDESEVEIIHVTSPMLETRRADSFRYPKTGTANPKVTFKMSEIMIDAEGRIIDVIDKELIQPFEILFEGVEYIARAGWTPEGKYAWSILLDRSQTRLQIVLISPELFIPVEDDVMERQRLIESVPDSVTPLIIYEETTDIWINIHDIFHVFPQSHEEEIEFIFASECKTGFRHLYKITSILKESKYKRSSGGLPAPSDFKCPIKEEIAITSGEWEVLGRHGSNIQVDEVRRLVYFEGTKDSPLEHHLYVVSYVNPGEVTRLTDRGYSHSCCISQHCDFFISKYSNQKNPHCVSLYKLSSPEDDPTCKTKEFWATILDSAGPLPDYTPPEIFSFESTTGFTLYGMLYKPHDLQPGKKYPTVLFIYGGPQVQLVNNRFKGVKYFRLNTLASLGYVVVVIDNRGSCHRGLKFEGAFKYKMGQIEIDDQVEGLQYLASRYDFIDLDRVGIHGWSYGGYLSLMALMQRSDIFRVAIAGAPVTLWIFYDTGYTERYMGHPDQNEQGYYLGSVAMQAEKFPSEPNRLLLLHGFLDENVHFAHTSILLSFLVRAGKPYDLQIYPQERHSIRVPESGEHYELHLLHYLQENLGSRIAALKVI", "details": "Verspohl 2012; Huan et al. 2015; cited from earlier work"}, "[6]": {"details": "B16F10 tumors, sitagliptin vs control"}},
  "data": [
    {"compound": "N[C@@H](CC(=O)N1CCn2c(nnc2C(F)(F)F)C1)Cc1cc(F)c(F)cc1F", "note": "[sitagliptin]", "values": [
      {"measurement": "number of lung metastases", "setting": "[1]", "result": "significantly reduced the number of lung metastases"},
      {"measurement": "number of CD4+ and CD8+ T cells localized to the tumors", "setting": "[2]; [6]", "result": "significant increase"},
      {"measurement": "number of tumor-infiltrating myeloid cells, NK cells, B lymphocytes or CD25hi regulatory T cells", "setting": "[2]; [6]", "result": "no significant differences"},
      {"measurement": "CXCL10-mediated trafficking of Pmel-1 cells into B16F10 tumors", "setting": "[2]; adoptive transfer, 12-14 hr after intratumoral mCXCL10", "result": "enhanced"},
      {"measurement": "lymphocyte recruitment into the tumor parenchyma after intratumoral mCXCL10", "setting": "[2]; day 7 B16F10 tumors, 12-14 h after injection", "result": "enhanced CXCL10 recruitment of T cells and NK cells"},
      {"measurement": "trafficking of B cells, regulatory T cells, eosinophils or neutrophils into tumors after intratumoral mCXCL10", "setting": "[2]; day 7 B16F10 tumors, sitagliptin vs control", "result": "unchanged"},
      {"measurement": "reduction in tumor size", "setting": "[3]; B16-OVA tumors, day 15", "result": "~50", "unit": "%"},
      {"measurement": "B16-OVA tumor growth", "setting": "[3]; monotherapies vs control", "result": "significant delay"},
      {"measurement": "malignant transformation", "setting": "[4]", "result": "delays malignant transformation"},
      {"measurement": "effect on DPP8 activity", "setting": "[5]", "result": "no effect"}
    ]}
  ]
}
